Starred links: 1 amine or outer side, 2 acyl side, 3 side chain; linkers in the order of their positions; H or OH if unused. Residues, ends and D or L forms follow the SMILES beside them. Groups on a side chain read outwards from the residue. *: point of attachment. Morpholide = C1CN(*)CCO1; Cbz = O=C(OCc1ccccc1)*; CO = O=C([*:1])[*:2]
Each compound was assayed against T1, integrin VLA-4, expressed on the Jurkat J6 (human lymphoblast cell line) cell membrane with VCAM-1 (Homo sapiens, UniProt P05556+P13612) (assay: Jurkat J6/VCAM-1 adhesion assay). Conditions: Jurkat J6 cell adhesion to VCAM-1, 1 mM MnCl2; mean of n experiments.
T1 construct: integrin VLA-4, expressed on the Jurkat J6 (human lymphoblast cell line) cell membrane; endogenous in cells; host or cells: Jurkat J6 cells (integrin). zzVCAM-1 was made in house in Drosophila melanogaster S2 cells
T1 sequence (P13612 34-1032): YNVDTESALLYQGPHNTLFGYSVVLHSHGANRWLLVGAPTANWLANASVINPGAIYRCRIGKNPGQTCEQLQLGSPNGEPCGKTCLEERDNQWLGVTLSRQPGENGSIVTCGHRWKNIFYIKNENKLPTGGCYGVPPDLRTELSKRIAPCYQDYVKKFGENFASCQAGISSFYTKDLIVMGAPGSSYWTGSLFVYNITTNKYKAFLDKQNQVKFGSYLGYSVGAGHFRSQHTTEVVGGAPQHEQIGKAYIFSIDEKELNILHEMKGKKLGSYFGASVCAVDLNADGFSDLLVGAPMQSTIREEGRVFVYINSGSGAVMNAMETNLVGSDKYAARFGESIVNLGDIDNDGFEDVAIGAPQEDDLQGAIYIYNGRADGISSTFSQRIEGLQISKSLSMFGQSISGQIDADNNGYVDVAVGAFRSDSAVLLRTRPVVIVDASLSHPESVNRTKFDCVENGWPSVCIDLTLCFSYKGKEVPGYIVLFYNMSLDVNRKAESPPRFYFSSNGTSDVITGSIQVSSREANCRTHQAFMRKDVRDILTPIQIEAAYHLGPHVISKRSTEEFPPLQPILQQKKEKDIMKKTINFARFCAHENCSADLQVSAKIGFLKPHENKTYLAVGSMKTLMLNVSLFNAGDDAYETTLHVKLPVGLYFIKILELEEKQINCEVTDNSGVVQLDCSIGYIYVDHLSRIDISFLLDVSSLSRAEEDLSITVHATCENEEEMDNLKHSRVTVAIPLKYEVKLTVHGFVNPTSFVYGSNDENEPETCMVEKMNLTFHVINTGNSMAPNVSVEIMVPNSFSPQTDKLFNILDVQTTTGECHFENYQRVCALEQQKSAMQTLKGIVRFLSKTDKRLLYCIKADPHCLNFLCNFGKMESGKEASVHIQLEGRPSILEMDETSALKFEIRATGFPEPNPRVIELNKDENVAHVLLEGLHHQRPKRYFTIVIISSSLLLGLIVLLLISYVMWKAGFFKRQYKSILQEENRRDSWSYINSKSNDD
T1 sequence (P05556 21-798): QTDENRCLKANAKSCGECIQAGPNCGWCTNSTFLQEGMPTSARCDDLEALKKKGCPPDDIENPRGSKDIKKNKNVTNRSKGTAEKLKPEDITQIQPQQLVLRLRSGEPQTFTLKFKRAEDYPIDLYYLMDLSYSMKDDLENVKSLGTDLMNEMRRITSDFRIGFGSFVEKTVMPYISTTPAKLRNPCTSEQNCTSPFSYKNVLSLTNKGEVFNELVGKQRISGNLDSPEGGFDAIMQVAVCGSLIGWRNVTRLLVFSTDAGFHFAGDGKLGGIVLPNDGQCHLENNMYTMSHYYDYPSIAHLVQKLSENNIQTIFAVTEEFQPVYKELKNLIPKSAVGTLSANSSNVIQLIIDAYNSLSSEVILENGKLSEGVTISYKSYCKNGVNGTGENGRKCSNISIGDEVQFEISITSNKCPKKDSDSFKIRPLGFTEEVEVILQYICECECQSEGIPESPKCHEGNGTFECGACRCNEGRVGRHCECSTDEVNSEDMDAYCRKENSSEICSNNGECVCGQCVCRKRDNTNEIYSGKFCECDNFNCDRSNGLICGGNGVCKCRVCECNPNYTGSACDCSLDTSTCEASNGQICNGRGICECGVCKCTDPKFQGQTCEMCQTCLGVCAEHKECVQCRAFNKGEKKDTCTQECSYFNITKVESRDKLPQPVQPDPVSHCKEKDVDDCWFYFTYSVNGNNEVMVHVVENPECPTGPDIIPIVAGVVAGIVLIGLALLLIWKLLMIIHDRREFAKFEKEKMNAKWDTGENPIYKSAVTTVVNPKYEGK
Format: cell-based
Experimental: (1) Jurkat J6/VCAM-1 Adhesion Assay
This assay was used to investigate the interaction of the integrin VLA-4, expressed on the Jurkat J6 (human lymphoblast cell line) cell membrane with VCAM-1. Polystyrene 96-well microtitre plates were coated with human immunoglobulin G (IgG; Sigma Chemicals, UK, Product No. 14506) at a concentration of 0.05 mg ml^−1 in bicarbonate buffer (36 mM NaHCO3 and 22 mM Na2CO3, prepared in Dulbecco's phosphate buffered saline at pH 9.8 (PBS); Sigma Chemicals, UK, Product No. 14190-094) for 2 hours at 37° C. This solution was then aspirated and the plates were washed twice with PBS.
VCAM-1 was prepared by cloning its constituent seven domains into a Drosophila expression system with a zz (Protein A) tag. This zzVCAM-1 was then expressed from Drosophila melanogaster S2 cell culture, induced with copper. Protease inhibitors were added and the culture supernatant was clarified either by filtration through a 0.2 μm filter or by centrifugation. The zzVCAM-1 was then purified from this clarified medium using an IgG agarose column, equilibrated with either 20 mM sodium phosphate pH 7.2 alone or in the presence of 0.5M sodium chloride. Elution of zzVCAM-1 from the column was mediated using 3M ammonium thiocyanate, which was subsequently removed using a G25 desalting column, equilibrated with 20 mM sodium phosphate, pH 7.2. The purified zzVCAM-1 was then concentrated to a small volume (Amicon stirred cell concentrators) until a concentration of 62.5 ng ml^−1 was obtained, calculated using the extinction coefficient value.
This solution of zzVCAM-1 was then incubated overnight at 4° C. in the IgG coated microtitre plates with 3% bovine serum albumin (BSA) in PBS, followed by aspiration and two further washes with PBS. A concentration of the Jurkat J6 cells (6×10^6 cels ml^−1), grown in cell media RPMI 1640 (HyClone Ltd, Product No. B-9106-L) supplemented with 10% heat inactivated fetal calf serum (FCS; Gibco BRL, Product No. 10099-075) and 2 mM L-glutamine, were labelled with 10 μM of the fluorescent dye, 2′, 7′-bis(2-carboxyethyl)-5-(e6)-carboxyfluorescein acetoxymethyl ester (BCECF-AM; Molecular Probes Inc, Product No. B-1150) at 37° C. for 10 minutes. The excess dye was then removed by centrifugation at 500×g for 5 minutes and the cells were resuspended at a concentration of 1.2×10^7 cells ml^−1 in Hank's balanced salt solution (HBSS; Gibco BRL, Product No. 14190-094).
Equal volumes of compounds (dissolved in an appropriate solvent and diluted in HBSS containing 1 mM MnCl2) and the labelled Jurkat J6 cells, were added to the VCAM-1 coated plates and adhesion was allowed to proceed for 30 minutes at 37° C. Non, or loosely adhered cells, were removed by inversion of the plate and blotted with tissue paper. Two washes with PBS and further blotting were then performed, before the addition of 2% detergent (Triton-X®; Sigma Chemicals UK, Product No. X100). Counting was undertaken in a Wallac Viktor™ Fluorimeter, where low fluorescence values were indicative of compounds which had inhibited adhesion. All samples were assayed in singlicate and the following four parameter curve fit, shown by Equation (I) was applied: [formula]
Where a is the minimum, b is the Hill slope, c is the IC50 and d is the maximum. (Maximum and minimum values are those compared to adhesion in the absence of compound and in the presence of the dipotassium salt of 2 mM EDTA; Sigma Chemicals, UK, Product No. ED2P). Data is presented as the mean pIC50 with the standard error of the mean of n experiments.

| Compound | IC50 |
| --- | --- |
| CC(C)C[C@H](NC(=O)COc1ccccc1C(=O)c1ccccc1)C(=O)N[C@@H](Cc1ccc(OC(=O)N2CCOCC2)cc1)C(=O)O [Example 36, (2S)-2-[((2S)-2-{[2-(2-Benzoylphenoxy)acetyl]amino}-4-methylpentanoyl)amino]-3-{4-[(4-morpholinylcarbonyl)oxy]phenyl}propanoic acid] | 0.0123 µM |
| CCCc1ccccc1OCC(=O)N[C@@H](CC(C)C)C(=O)N[C@@H](Cc1ccc(OC(=O)N2CCOCC2)cc1)C(=O)O [Example 37, (2S)-2-[((2S)-4-Methyl-2-{[2-(2-propylphenoxy)acetyl]amino}pentanoyl)amino]-3-{4-[(4-morpholinylcarbonyl)oxy]phenyl}propanoic acid] | 0.00575 µM |
| CC(C)C[C@H](NC(=O)COc1ccc2ccccc2c1Br)C(=O)N[C@@H](Cc1ccc(OC(=O)N2CCOCC2)cc1)C(=O)O [Example 38, (2S)-2-{[(2S)-2-({2-[(1-Bromo-2-naphthyl)oxy]acetyl}amino)-4-methylpentanoyl]amino}-3-{4-[(4-morpholinylcarbonyl)oxy]phenyl}propanoic acid] | 0.0155 µM |
| CC(C)C[C@H](NC(=O)COc1ccccc1C1CCCCC1)C(=O)N[C@@H](Cc1ccc(OC(=O)N2CCOCC2)cc1)C(=O)O [Example 39, (2S)-2-[((2S)-2-{[2-(2-Cyclohexylphenoxy)acetyl]amino}-4-methylpentanoyl)amino]-3-{4-[(4-morpholinylcarbonyl)oxy]phenyl}propanoic acid] | 0.0224 µM |
| CC(C)C[C@H](NC(=O)OCc1ccccc1)C(=O)N[C@@H](Cc1ccc(OC(=O)N2CCOCC2)cc1)C(=O)O [Example 40, (2S)-2-[((2S)-2-{[(Benzyloxy)carbonyl]amino}-4-methylpentanoyl)amino]-3-{4-[(4-morpholinylcarbonyl)oxy]phenyl}propanoic acid] (Cbz-Leu-Tyr([CO-Morpholide])-OH) | 0.00912 µM |
| CC(C)C[C@H](NC(=O)COc1ccccc1I)C(=O)N[C@@H](Cc1ccc(OC(=O)N2CCN(C(=O)c3ccco3)CC2)cc1)C(=O)O [Example 41, (2S)-3-[4-({[4-(2-Furoyl)-1-piperazinyl]carbonyl}oxy)phenyl]-2-[((2S)-2-{[2-(2-iodophenoxy)acetyl]amino}-4-methylpentanoyl)amino]propanoic acid] | 0.00933 µM |
| CC(C)C[C@H](NC(=O)COc1ccccc1C(C)(C)C)C(=O)N[C@@H](Cc1ccc(OC(=O)N2CCN(C(=O)c3ccco3)CC2)cc1)C(=O)O [Example 42, (2S)-2-{[(2S)-2-({2-[2-(Tert-butyl)phenoxy]acetyl}amino)-4-methylpentanoyl]amino}-3-[4-({[4-(2-furoyl)-1-piperazinyl]carbonyl}oxy)phenyl]propanoic acid] | 0.011 µM |

Now from value to compound:

| IC50 | Compound |
| --- | --- |
| 0.0224 µM | CC(C)C[C@H](NC(=O)COc1ccccc1C1CCCCC1)C(=O)N[C@@H](Cc1ccc(OC(=O)N2CCN(C(=O)c3ccco3)CC2)cc1)C(=O)O [Example 43, (2S)-2-[((2S)-2-{[2-(2-Cycohexylphenoxy)acetyl]amino}-4-methylpentanoyl)amino]-3-[4-({[4-(2-furoyl)-1-piperazinyl]carbonyl}oxy)phenyl]propanoic acid] |
| 0.024 µM | CC(C)C[C@H](NC(=O)COc1ccc2ccccc2c1Br)C(=O)N[C@@H](Cc1ccc(OC(=O)N2CCN(C(=O)c3ccco3)CC2)cc1)C(=O)O [Example 44, (2S)-2-{[(2S)-2-({2-[(1-Bromo-2-naphthyl)oxy]acetyl}amino)-4-methylpentanoyl]amino}-3-[4-({[4-(2-furoyl)-1-piperazinyl]carbonyl}oxy)phenyl]propanoic acid] |
| 0.0575 µM | CC(C)C[C@H](NC(=O)COc1ccccc1C1CCCCC1)C(=O)N[C@@H](Cc1ccc(OC(=O)N2CCC(NC(=O)Cc3ccc(Cl)cc3)CC2)cc1)C(=O)O [Example 45, (2S)-3-(4-{[(4-{[2-(4-Chlorophenyl)acetyl]amino}-1-piperidinyl)carbonyl]oxy}phenyl)-2-[((2S)-2-{[2-(2-cyclohexylphenoxy)acetyl]amino}-4-methylpentanoyl)amino]propanoic acid] |

From patent US6867192B1, “Compounds useful in the treatment of inflammatory diseases” (priority 1998, dated 2005)
